One may read the inhibition as how much of the control response was suppressed. A higher inhibition goes with strong suppression. As a reminder, the Ki is the dissociation constant of the complex between target and ligand, obtained from inhibition or displacement. Usually logD stands for lipophilicity at a set pH, counting ionised and neutral species.

Data set [1] deals with Sodium-dependent serotonin transporter (Rattus norvegicus) (UniProt P31652). Briefly: Inhibition of SERT in rat brain membrane at 10 uM. The format is cell membranes.
Chain of Sodium-dependent serotonin transporter (Rattus norvegicus) (P31652 whole entry): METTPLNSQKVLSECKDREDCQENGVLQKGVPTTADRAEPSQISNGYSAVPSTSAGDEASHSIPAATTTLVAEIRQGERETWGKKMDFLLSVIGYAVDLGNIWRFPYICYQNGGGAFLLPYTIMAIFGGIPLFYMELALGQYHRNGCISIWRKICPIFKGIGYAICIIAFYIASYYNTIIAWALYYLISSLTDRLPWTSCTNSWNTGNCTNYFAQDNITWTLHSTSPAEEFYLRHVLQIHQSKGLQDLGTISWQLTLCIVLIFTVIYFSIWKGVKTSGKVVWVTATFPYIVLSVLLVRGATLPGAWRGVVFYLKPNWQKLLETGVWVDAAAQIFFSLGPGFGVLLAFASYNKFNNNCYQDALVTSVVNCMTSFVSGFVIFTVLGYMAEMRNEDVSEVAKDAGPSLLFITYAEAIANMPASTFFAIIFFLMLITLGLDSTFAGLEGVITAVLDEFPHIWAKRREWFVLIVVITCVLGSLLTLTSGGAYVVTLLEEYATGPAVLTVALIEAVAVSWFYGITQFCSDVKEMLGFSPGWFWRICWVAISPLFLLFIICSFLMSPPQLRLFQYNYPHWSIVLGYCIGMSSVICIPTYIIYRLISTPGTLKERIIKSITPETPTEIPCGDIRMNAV
Data set [2] concerns the target Sodium-dependent dopamine transporter (Rattus norvegicus, UniProt P23977). Briefly: Displacement of [3H]GBR from DAT in rat brain membranes. The format is cell membranes. For orientation: Loss of bound radioactivity is the signal in a displacement assay; it reports binding, not function.
In data set [3] the target is Norepinephrine transporter (Rattus norvegicus, UniProt Q9WTR4). Briefly: Displacement of [3H]nisoxetine from NET in rat brain membranes. The format is cell membranes.
Chain of Norepinephrine transporter (Q9WTR4 whole entry): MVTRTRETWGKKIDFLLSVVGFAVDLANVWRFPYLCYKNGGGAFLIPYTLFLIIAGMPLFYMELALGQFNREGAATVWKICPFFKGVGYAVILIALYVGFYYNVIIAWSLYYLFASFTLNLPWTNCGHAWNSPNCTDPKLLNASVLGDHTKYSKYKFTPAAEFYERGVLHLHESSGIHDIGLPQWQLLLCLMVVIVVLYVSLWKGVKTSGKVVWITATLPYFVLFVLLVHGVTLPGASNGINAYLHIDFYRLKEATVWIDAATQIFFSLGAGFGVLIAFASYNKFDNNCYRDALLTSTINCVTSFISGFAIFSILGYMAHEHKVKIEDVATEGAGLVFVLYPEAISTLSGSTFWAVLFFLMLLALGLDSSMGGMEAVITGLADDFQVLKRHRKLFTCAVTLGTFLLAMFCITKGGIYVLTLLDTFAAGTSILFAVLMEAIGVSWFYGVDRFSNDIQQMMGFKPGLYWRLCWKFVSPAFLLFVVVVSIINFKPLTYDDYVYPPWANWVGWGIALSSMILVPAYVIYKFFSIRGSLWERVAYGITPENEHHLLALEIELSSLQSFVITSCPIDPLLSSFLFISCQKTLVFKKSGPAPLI
Data set [4] concerns the target Sodium-dependent serotonin transporter (Rattus norvegicus, UniProt P31652). As to the kind of experiment: Displacement of [3H]paroxetine from SERT in brain membranes. The format is cell membranes, Membrane.
The nature of data set [5]: Lipophilicity, log D at pH 7.4. The following applies: buffer. The format is physicochemical.
The test system of a further data set is Brain. As to the kind of experiment: Drug uptake in olive baboon brain at 7.89 mCi after 10 mins. Format: ADME, tissue-based. To be noted: papio anubis, in vivo.

Chain of Sodium-dependent serotonin transporter (P31652 whole entry): as the sequence (P31652 whole entry) above
Chain of Sodium-dependent dopamine transporter (P23977 whole entry): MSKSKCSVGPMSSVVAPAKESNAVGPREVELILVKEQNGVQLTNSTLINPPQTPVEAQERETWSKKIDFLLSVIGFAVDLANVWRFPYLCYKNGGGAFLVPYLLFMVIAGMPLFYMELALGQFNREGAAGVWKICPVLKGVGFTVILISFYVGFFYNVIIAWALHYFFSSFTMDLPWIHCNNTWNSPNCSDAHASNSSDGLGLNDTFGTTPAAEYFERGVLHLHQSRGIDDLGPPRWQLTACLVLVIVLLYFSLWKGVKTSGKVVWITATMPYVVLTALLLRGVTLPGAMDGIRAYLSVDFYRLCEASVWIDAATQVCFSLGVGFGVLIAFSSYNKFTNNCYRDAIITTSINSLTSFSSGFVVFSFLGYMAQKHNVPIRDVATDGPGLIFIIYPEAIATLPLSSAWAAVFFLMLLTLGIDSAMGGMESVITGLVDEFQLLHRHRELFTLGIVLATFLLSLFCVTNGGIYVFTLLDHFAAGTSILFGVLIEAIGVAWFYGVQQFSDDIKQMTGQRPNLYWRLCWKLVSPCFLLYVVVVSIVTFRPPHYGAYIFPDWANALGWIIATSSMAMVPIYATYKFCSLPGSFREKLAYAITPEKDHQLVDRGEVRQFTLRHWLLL

In data set [1], `CCOc1ccccc1OC(c1cccc(I)c1)C1CNCCO1` (racemic) registered an inhibition of 44%. The inhibitory constant (Ki) in data set [2] worked out at 3140 nM; in data set [3] it was 28.5 nM.
As for `COc1ccccc1OC(c1ccc(I)s1)C1CNCCO1` (racemic), the results for the inhibitory constant (Ki) in data set [4], in data set [2] and in data set [3] were 141 nM, 210 nM and 79.6 nM, respectively.
Compound `Ic1ccccc1OC(c1ccccc1)C1CNCCO1` (racemic) yielded an inhibition in data set [1] of 40%. For the same compound, the Ki in data set [2] was 410 nM; in data set [3] it was 2.47 nM.
In data set [1], `Cc1ccccc1OC(c1cccc(I)c1)C1CNCCO1` (racemic) returned an inhibition of 24%. Further, the Ki in data set [2] was 740 nM; in data set [3], 27.6 nM.
In data set [5], `[125I]c1ccccc1O[C@@H](c1ccccc1)[C@@H]1CNCCO1` showed a logD of 2.6. In addition, in the data set on Brain, the Drug uptake stood at 1 %ID.
As to `Ic1ccccc1O[C@@H](c1ccccc1)[C@@H]1CNCCO1`, the inhibitory constant (Ki) in data set [4] is 40.4 nM; in data set [2], 228 nM; in data set [3], 0.84 nM.
Take `FC(F)(F)c1ccccc1OC(c1cccc(I)c1)C1CNCCO1` (racemic): the inhibitory constant (Ki) is 486 nM in data set [4], 1870 nM in data set [2] and 101 nM in data set [3].
`Cc1ccccc1OC(c1ccc(I)s1)C1CNCCO1` (racemic) registered an inhibition in data set [1] of 31%. Besides, the inhibition constant (Ki) in data set [2] worked out at 186 nM; in data set [3] it was 71.9 nM.
In the same order, the values of `COc1ccccc1OC(c1cccc(I)c1)C1CNCCO1` (racemic) are 12%, > 10000 nM and 15.4 nM.
In the case of `COc1ccccc1COC(c1cccc(I)c1)C1CNCCO1` (racemic), the figures for the inhibition constant Ki in data set [4], in data set [2] and in data set [3] were 351 nM, 716 nM and 73.8 nM, respectively.
On to `O=[N+]([O-])c1ccccc1COC(c1cccc(I)c1)C1CNCCO1` (racemic), for which the inhibitory constant (Ki) in data set [4] was determined as 252 nM; in data set [2], 14.2 nM; in data set [3], 70.4 nM.

Values taken from ChEMBL document CHEMBL1138413, “Development of SPECT imaging agents for the norepinephrine transporters: [123I]INER” (Bioorg Med Chem Lett, 2007).
